# In US8946215B2, “Hydroxy-substituted imidazo[1,2-a]pyridinecarboxamides and their use” (Bayer Pharma Aktiengesellschaft, priority 2012, dated 2015):
# Where a name gives a salt, the structure may show the parent alone.
# Molecular target: T1, recombinant guanylate cyclase reporter cell line (Rattus norvegicus, UniProt P19686+P20595)
# T1 construct: expressed in transfected cells
# T1 sequence (P20595 1-619): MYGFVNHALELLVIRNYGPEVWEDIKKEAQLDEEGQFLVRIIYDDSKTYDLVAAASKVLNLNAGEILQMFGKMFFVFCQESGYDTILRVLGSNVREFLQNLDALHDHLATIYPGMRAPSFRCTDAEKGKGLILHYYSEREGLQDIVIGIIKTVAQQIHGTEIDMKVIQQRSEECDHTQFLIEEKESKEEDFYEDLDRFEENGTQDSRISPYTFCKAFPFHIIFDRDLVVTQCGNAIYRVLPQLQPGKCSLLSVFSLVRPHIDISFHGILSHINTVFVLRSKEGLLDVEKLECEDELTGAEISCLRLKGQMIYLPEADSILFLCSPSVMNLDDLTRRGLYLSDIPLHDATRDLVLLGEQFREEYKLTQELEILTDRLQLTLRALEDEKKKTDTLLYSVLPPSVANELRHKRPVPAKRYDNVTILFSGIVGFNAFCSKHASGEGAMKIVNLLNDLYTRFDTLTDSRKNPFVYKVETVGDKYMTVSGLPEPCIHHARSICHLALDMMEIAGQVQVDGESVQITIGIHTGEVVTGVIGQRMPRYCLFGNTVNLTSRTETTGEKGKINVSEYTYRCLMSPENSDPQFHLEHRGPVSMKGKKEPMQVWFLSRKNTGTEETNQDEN
# T1 sequence (P19686 1-690): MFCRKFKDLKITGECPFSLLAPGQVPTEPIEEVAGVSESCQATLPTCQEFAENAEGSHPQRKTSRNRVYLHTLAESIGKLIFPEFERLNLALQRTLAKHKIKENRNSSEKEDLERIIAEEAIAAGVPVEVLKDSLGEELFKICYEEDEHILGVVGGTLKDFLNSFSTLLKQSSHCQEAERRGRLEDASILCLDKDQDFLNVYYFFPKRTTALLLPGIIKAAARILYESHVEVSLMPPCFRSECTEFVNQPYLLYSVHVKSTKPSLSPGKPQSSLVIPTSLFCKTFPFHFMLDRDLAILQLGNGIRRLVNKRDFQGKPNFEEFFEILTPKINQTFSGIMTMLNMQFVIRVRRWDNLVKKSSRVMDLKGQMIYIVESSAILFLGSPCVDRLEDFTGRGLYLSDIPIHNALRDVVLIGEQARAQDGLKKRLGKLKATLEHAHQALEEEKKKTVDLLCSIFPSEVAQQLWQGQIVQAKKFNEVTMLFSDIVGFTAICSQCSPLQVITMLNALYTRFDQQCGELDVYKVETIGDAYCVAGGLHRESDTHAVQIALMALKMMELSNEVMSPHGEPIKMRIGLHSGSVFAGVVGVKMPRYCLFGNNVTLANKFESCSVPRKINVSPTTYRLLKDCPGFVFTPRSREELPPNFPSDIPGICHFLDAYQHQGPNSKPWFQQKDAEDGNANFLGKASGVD
# Experiment: Action on recombinant guanylate cyclase reporter cell line
# Format: cell-based
# Details: in some cases mean values obtained from individual determinations
# Protocol: B-2. Action on Recombinant Guanylate Cyclase Reporter Cell Line
# The cellular action of the compounds according to the invention is determined on a recombinant guanylate cyclase reporter cell line, as described in F. Wunder et al., Anal. Biochem. 339, 104-112 (2005).
# Representative values (MEC=minimal effective concentration) for the compounds according to the invention are shown in the following table (in some cases as mean values obtained from individual determinations): […]
row,MEC (minimal effective concentration),SMILES
1,0.65 µM,"Cc1nc2c(OCC3CCCCC3)cccn2c1C(=O)NCCOCCO [Example 86, 8-(cyclohexylmethoxy)-N-[2-(2-hydroxyethoxy)ethyl]-2-methylimidazo[1,2-a]-pyridine-3-carboxamide]"
2,3.0 µM,"CCc1nc2c(OCC3CCC3)cccn2c1C(=O)N[C@@H](C)CO [Example 58, 8-(cyclobutylmethoxy)-2-ethyl-N-[(2S)-1-hydroxypropan-2-yl]imidazo[1,2-a]pyridine-3-carboxamide formic acid salt]"
3,3.0 µM,"Cc1nc2c(OCC3CCCCC3)cccn2c1C(=O)N[C@H](CO)CC(C)C [Example 95, 8-(cyclohexylmethoxy)-N-[(2S)-1-hydroxy-4-methylpentan-2-yl]-2-methylimidazo[1,2-a]pyridine-3-carboxamide]"
4,0.3 µM,"Cc1nc2c(OCc3c(F)cccc3F)cccn2c1C(=O)N[C@H](C)CO [Example 118, 8-[(2,6-difluorobenzyl)oxy]-N-[(2R)-1-hydroxypropan-2-yl]-2-methylimidazo[1,2-a]-pyridine-3-carboxamide]"
5,0.1 µM,"Cc1nc2c(OCc3c(F)cccc3F)cccn2c1C(=O)NC(CO)c1ccc(F)cc1 (single isomer, unassigned; ent-8) [Example 107, ent-8-[(2,6-Difluorobenzyl)oxy]-N-[1-(4-fluorophenyl)-2-hydroxyethyl]-2-methylimidazo[1,2-a]-pyridine-3-carboxamide]"
6,10 µM,"Cc1cc(OCc2ncccc2F)c2nc(C)c(C(=O)NC(CCC(O)C(F)(F)F)C(C)(C)O)n2c1 (mixture of isomers) [Example 195, 8-[(3-fluoropyridin-2-yl)methoxy]-2,6-dimethyl-N-(7,7,7-trifluoro-2,6-dihydroxy-2-methylheptan-3-yl)imidazo[1,2-a]pyridine-3-carboxamide (stereoisomer mixture)]"
7,0.2 µM,"Cc1nc2c(OCC3CCCCC3)cccn2c1C(=O)NCCCCO [Example 74, 8-(cyclohexylmethoxy)-N-(4-hydroxybutyl)-2-methylimidazo[1,2-a]pyridine-3-carboxamide]"
8,0.1 µM,"CCCC[C@H](CO)NC(=O)c1c(C)nc2c(OCc3c(F)cc(F)cc3F)cccn12 [Example 15, N-[(2R)-1-Hydroxyhexan-2-yl]-2-methyl-8-[(2,4,6-trifluorobenzyl)oxy]imidazo[1,2-a]pyridine-3-carboxamide]"
9,1 µM,"Cc1cc(OCc2ncccc2F)c2nc(C)c(C(=O)NC(CCC(F)(F)C(F)(F)F)C(C)(C)O)n2c1 (racemic) [Example 186, rac-8-[(3-fluoropyridin-2-yl)methoxy]-2,6-dimethyl-N-(6,6,7,7,7-pentafluoro-2-hydroxy-2-methylheptan-3-yl)imidazo[1,2-a]pyridine-3-carboxamide (racemate)]"
10,1.0 µM,"Cc1nc2c(OCc3c(F)cccc3F)cccn2c1C(=O)N[C@@H](CO)CCCO [Example 130, 8-[(2,6-difluorobenzyl)oxy]-N-[(2R)-1,5-dihydroxypentan-2-yl]-2-methylimidazo[1,2-a]pyridine-3-carboxamide]"
11,0.03 µM,"Cc1nc2c(OCc3c(F)cccc3F)cccn2c1C(=O)NC(CC(F)(F)F)C(C)(C)O (single isomer, unassigned; ent-8) [Example 154, ent-8-[(2,6-Difluorobenzyl)oxy]-2-methyl-N-(1,1,1-trifluoro-4-hydroxy-4-methylpentan-3-yl)-imidazo[1,2-a]pyridine-3-carboxamide]"
12,0.03 µM,CCCC[C@H](CO)NC(=O)c1c(C)nc2c(OCc3c(F)ccc(F)c3F)cccn12 [Example 2]
13,0.01 µM,"[2H]C([2H])(Oc1cccn2c(C(=O)N[C@@H](CO)CCCC)c(C)nc12)c1c(F)cccc1F [Example 115, 8-{[(2,6-difluorophenyl)(^2H2)methyl]oxy}-N-[(2R)-1-hydroxyhexan-2-yl]-2-methylimidazo[1,2-a]pyridine-3-carboxamide]"
14,1.0 µM,"CCOCC(CO)NC(=O)c1c(C)nc2c(OCc3c(F)cccc3F)cccn12 (single isomer, unassigned; ent-8) [Example 161, ent-8-[(2,6-Difluorobenzyl)oxy]-N-(1-ethoxy-3-hydroxypropan-2-yl)-2-methylimidazo[1,2-a]-pyridine-3-carboxamide (enantiomer A)]"
15,0.1 µM,CCCC[C@H](CO)NC(=O)c1c(C)nc2c(OCc3ccccc3F)cccn12 [Example 5]
16,1.0 µM,"C[C@@H](CO)NC(=O)c1c(C(F)(F)F)nc2c(OCC3CCCCC3)cccn12 [Example 56, 8-(cyclohexylmethoxy)-N-[(2S)-1-hydroxypropan-2-yl]-2-(trifluoromethyl)imidazo[1,2-a]pyridine-3-carboxamide]"
17,0.03 µM,"CCCC[C@H](CO)NC(=O)c1c(C)nc2c(OCc3c(F)cccc3F)cc(Br)cn12 [Example 65, 6-bromo-8-[(2,6-difluorobenzyl)oxy]-N-[(2R)-1-hydroxyhexan-2-yl]-2-methylimidazo[1,2-a]pyridine-3-carboxamide]"
18,0.3 µM,"Cc1cc(OCc2ncccc2F)c2nc(C)c(C(=O)NC(CC(F)(F)F)C(C)(C)O)n2c1 (single isomer, unassigned; ent-8) [Example 185, ent-8-[(3-fluoropyridin-2-yl)methoxy]-2,6-dimethyl-N-(1,1,1-trifluoro-4-hydroxy-4-methylpentan-3-yl)imidazo[1,2-a]pyridine-3-carboxamide (enantiomer B)]"
19,0.1 µM,CCC[C@H](CO)NC(=O)c1c(C)nc2c(OCc3c(F)cccc3F)cccn12 [Example 18]
20,1.0 µM,"Cc1nc2c(OCC3CCCCC3)cccn2c1C(=O)NC1(CO)CCCC1 [Example 92, 8-(cyclohexylmethoxy)-N-[1-(hydroxymethyl)cyclopentyl]-2-methylimidazo[1,2-a]pyridine-3-carboxamide]"
21,1.0 µM,"CCCC[C@H](CO)NC(=O)c1c(C)nc2c(OCc3c(F)cccc3F)c(F)ccn12 [Example 177, 8-[(2,6-Difluorobenzyl)oxy]-7-fluoro-N-[(2R)-1-hydroxyhexan-2-yl]-2-methylimidazo[1,2-a]-pyridine-3-carboxamide]"
22,0.1 µM,CCCC[C@H](CO)NC(=O)c1c(C)nc2c(OCc3ccccc3Cl)cccn12 [Example 4]
23,1.0 µM,Cc1nc2c(OCc3c(F)cccc3F)cccn2c1C(=O)NCCCO [Example 22]
24,1 µM,"Cc1nc2c(OCc3ncccc3F)cccn2c1C(=O)NC(CCCC(F)(F)F)C(C)(C)O (racemic) [Example 179, rac-8-[(3-fluoropyridin-2-yl)methoxy]-2-methyl-N-(7,7,7-trifluoro-2-hydroxy-2-methylheptan-3-yl)imidazo(1,2-a]pyridine-3-carboxamide]"
25,0.1 µM,"Cc1nc2c(OCc3c(F)cccc3F)cccn2c1C(=O)N[C@@H](CO)CC[C@@H](O)C(F)(F)F [Example 135, 8-[(2,6-difluorobenzyl)oxy]-2-methyl-N-[(2R,5R)-6,6,6-trifluoro-1,5-dihydroxyhexan-2-yl]imidazo[1,2-a]pyridine-3-carboxamide trifluoroacetate (1:1)]"

row,SMILES,MEC (minimal effective concentration)
1,"CCCC[C@H](CO)NC(=O)c1c(C)nc2c(OCCC(C(F)(F)F)C(F)(F)F)cc(C)cn12 [Example 169, N-[(2R)-1-Hydroxyhexan-2-yl]-2,6-dimethyl-8-[4,4,4-trifluoro-3-(trifluoromethyl)butoxy]imidazo-[1,2-a]pyridine-3-carboxamide]",0.3 µM
